According to ChEMBL document CHEMBL1201862, “PubChem BioAssay data set” (2004):
Active and inactive are the calls of the source.

Columns and labels:
[1] = molecular target: T1, Short transient receptor potential channel 4 (Mus musculus, UniProt Q9QUQ5); assay: calcium entry via TRPC4 opening agents – cell-based, HEK293 TRPC4/mu-opioid, Fluo-4 calcium, dose response (AID 434937); type: functional
T1 sequence (Q9QUQ5 whole entry): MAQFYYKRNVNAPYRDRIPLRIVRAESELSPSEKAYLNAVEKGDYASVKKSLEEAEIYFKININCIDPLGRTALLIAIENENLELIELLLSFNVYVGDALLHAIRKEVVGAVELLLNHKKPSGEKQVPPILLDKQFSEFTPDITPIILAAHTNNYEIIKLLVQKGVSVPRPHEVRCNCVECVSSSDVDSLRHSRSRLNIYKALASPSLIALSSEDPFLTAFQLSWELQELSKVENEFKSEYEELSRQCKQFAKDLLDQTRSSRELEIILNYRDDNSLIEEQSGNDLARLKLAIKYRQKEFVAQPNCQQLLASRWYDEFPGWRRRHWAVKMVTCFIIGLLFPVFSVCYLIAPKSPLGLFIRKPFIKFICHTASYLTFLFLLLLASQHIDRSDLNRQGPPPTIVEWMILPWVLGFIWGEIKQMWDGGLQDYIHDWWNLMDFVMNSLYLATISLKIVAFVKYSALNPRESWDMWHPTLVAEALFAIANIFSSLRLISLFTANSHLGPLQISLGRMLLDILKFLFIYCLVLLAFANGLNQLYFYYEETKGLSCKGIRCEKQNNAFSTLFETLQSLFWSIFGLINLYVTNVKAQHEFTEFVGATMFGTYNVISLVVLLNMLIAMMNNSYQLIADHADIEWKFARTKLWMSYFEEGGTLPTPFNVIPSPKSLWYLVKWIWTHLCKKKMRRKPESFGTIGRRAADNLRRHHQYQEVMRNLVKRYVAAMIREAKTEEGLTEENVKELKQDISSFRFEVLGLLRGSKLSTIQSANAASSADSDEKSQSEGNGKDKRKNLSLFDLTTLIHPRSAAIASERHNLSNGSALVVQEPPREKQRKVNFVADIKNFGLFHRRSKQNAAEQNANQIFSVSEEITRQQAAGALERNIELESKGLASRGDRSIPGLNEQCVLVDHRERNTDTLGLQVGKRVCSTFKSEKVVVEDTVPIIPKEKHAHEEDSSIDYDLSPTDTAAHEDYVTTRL

[2] = molecular target: Glyceraldehyde-3-phosphate dehydrogenase (Homo sapiens, UniProt P04406)
Glyceraldehyde-3-phosphate dehydrogenase, sequence (P04406 whole entry): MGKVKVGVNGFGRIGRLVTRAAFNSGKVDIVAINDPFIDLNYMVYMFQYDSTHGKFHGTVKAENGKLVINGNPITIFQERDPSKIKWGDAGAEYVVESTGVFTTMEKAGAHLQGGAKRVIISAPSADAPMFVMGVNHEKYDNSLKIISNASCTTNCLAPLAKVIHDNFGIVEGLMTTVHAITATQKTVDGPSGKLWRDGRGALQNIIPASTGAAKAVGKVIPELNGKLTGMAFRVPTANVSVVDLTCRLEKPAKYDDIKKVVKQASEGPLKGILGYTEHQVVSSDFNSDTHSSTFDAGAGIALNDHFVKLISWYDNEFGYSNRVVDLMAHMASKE

[3] = molecular target: T2, Alkaline phosphatase, tissue-nonspecific isozyme (Homo sapiens, UniProt P05186); assay: potency against alkaline phosphatase TNAP – biochemical, luminescent, dose response, SAR follow-up (AID 1056)
T2 sequence (P05186 whole entry): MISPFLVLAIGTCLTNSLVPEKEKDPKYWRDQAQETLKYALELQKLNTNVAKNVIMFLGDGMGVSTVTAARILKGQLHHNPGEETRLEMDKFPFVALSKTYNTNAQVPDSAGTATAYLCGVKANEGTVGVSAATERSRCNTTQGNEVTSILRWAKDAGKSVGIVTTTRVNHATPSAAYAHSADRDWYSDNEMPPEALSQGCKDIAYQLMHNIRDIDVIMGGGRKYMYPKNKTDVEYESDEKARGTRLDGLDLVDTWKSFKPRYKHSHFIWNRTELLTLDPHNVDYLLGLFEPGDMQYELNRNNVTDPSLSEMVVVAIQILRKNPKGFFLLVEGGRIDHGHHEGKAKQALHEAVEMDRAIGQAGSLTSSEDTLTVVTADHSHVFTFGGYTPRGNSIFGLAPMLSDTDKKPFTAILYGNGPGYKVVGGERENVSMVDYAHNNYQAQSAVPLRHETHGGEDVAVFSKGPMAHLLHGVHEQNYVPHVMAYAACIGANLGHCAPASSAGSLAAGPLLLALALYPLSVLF

Genome polyprotein = Genome polyprotein (dengue virus type 2, UniProt P29990); assay: flavivirus cap methylation enzyme inhibition – biochemical, confirmation dose response, primary screen (AID 588689); type: functional
Genome polyprotein, sequence (P29990 2492-3391 limits assumed): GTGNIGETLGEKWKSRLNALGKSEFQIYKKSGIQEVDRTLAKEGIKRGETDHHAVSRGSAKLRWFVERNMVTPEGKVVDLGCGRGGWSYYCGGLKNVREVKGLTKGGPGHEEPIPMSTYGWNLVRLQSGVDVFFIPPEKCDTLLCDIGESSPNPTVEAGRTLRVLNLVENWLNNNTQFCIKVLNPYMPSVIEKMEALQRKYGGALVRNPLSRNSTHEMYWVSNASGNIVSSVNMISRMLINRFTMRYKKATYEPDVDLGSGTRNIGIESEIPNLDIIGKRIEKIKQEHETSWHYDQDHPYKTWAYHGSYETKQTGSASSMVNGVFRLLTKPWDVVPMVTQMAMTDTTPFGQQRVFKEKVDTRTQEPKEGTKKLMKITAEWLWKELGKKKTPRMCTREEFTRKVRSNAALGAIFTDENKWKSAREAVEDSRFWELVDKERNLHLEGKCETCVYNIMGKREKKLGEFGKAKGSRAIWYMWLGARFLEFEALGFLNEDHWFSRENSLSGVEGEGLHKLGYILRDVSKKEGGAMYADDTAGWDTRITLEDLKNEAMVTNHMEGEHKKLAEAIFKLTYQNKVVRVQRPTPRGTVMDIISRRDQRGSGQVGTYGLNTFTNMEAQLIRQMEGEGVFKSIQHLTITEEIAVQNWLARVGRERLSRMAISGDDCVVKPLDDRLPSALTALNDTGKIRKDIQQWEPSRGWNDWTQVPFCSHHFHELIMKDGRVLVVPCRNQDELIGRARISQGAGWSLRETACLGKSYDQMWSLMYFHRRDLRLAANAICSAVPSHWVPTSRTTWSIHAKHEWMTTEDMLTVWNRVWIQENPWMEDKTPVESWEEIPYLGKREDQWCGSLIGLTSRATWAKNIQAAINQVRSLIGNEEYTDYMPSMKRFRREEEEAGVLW

[4] = molecular target: T3, Tyrosine-protein phosphatase non-receptor type 7 (Homo sapiens, UniProt P35236); type: functional
T3 sequence (P35236 whole entry): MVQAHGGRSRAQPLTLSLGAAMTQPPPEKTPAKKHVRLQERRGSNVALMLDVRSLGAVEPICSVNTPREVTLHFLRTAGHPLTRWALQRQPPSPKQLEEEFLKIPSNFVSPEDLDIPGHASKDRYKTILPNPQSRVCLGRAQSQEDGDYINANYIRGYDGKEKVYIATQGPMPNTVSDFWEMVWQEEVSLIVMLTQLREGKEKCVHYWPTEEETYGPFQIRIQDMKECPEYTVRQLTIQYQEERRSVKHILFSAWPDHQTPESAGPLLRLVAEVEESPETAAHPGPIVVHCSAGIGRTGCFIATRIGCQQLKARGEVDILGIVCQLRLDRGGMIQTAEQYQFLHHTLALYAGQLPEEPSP

[5] = molecular target: T4, Tyrosine-protein phosphatase non-receptor type 22 (Homo sapiens, UniProt Q9Y2R2); type: functional
T4 sequence (Q9Y2R2 whole entry): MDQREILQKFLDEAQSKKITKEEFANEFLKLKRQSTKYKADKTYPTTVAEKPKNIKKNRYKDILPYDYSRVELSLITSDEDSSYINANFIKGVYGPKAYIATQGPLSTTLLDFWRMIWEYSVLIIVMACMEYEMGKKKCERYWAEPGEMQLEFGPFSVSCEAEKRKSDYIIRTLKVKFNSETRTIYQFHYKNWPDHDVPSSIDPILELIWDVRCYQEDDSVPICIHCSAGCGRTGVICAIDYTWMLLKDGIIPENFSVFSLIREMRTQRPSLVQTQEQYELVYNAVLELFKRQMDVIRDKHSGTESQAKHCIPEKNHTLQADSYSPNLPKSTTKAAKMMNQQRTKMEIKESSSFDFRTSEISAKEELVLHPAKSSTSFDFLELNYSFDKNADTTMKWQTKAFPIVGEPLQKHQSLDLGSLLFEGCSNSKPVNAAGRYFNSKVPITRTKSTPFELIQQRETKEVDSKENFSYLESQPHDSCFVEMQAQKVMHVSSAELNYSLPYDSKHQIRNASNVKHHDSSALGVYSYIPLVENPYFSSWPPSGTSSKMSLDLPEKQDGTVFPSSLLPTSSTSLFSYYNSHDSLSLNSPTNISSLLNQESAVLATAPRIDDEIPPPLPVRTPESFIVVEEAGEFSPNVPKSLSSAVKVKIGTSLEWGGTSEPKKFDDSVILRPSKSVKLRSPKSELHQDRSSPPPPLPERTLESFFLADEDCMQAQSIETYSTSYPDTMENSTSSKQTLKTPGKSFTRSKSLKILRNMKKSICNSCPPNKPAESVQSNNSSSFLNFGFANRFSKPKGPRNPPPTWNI

[6] = molecular target: T4, Tyrosine-protein phosphatase non-receptor type 22; type: functional; remark: listed apart in the source
[7] = molecular target: T1, Short transient receptor potential channel 4; assay: block of DAMGO-driven TRPC4 calcium entry – cell-based, HEK293 TRPC4/mu-opioid, Fluo-4 calcium, dose response (AID 434942); type: functional;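 note: potency of inhibitors blocking the TRPC4 calcium response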
[8] = molecular target: T5, Replicative DNA helicase DnaB (Mycobacterium tuberculosis, UniProt P9WMR3); assay: DnaB intein splicing inhibitors, dose response, biochemical, cell-free fluorescence (AID 449749); type: functional
T5 sequence (P9WMR3 whole entry): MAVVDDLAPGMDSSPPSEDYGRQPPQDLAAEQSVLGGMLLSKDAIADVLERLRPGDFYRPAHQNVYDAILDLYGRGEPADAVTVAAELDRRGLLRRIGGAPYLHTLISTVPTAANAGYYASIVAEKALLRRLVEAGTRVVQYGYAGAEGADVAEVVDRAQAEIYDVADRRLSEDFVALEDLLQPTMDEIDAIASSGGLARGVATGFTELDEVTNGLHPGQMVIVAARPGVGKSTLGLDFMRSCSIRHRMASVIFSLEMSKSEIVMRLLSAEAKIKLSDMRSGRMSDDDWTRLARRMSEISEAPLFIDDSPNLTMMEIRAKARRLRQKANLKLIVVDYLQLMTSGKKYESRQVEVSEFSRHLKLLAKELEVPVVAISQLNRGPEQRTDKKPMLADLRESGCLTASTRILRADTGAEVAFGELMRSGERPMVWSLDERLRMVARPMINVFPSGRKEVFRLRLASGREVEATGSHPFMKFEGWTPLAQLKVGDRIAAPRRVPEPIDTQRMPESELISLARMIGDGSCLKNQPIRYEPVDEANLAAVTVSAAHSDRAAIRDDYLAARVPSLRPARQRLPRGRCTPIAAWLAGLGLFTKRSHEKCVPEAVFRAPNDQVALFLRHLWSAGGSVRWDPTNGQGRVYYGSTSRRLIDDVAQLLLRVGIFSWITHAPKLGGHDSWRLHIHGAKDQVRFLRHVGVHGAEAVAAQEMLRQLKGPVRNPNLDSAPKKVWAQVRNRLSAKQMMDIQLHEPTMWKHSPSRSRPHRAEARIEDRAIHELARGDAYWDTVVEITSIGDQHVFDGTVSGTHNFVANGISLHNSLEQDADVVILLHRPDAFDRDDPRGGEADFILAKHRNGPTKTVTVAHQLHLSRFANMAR

[9] = molecular target: T6, Microphthalmia-associated transcription factor (Homo sapiens, UniProt O75030); assay: reducers of TRPM1 reporter luminescence, concentration series – cell-based, SK-MEL-5, cherry-picked, set 3, MITF inhibitor project, dose response (AID 493073); type: functional;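 note: SK-MEL-5 melanoma cells with luciferase driven by the MITF target TRPM1 promoter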
T6 sequence (O75030 whole entry): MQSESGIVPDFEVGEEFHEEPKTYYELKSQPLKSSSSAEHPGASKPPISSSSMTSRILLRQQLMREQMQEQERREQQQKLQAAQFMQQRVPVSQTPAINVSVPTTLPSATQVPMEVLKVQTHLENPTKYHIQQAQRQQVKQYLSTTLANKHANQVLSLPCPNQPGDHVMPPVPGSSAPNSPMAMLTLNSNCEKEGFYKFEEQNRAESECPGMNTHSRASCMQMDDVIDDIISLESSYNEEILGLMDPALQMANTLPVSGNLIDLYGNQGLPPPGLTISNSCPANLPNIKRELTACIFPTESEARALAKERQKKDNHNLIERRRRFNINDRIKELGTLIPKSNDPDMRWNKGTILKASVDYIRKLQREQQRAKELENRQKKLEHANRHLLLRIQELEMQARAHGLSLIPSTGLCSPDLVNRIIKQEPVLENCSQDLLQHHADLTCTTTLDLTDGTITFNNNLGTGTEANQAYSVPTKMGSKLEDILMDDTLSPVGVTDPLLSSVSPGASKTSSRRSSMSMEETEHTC

[10] = molecular target: G-protein coupled receptor 55 (Homo sapiens, UniProt Q9Y2T6); assay: selective activators of receptor GPR55 – imaging, U2OS cells, beta-arrestin-GFP redistribution, primary screen (AID 1961); type: functional
G-protein coupled receptor 55, sequence (Q9Y2T6 whole entry): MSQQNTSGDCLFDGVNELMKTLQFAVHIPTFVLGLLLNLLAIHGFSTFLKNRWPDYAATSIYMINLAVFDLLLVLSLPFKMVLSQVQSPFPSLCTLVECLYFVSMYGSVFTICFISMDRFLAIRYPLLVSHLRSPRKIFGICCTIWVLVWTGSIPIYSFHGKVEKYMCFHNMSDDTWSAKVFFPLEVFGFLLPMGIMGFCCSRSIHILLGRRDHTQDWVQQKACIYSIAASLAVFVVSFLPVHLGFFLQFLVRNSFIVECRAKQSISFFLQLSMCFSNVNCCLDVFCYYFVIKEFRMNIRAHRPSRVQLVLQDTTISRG

Protein RecA = molecular target: T7, Protein RecA (Mycobacterium tuberculosis, UniProt P9WHJ3); assay: Fluorescence Cell-Free Homogeneous Dose Retest to Identify Inhibitors of RecA-Intein Splicing Activity. [Related pubchem assays (depositor defined):AID2097, AID2223, AID489010, AID492950]; type: functional
T7 sequence (P9WHJ3 whole entry): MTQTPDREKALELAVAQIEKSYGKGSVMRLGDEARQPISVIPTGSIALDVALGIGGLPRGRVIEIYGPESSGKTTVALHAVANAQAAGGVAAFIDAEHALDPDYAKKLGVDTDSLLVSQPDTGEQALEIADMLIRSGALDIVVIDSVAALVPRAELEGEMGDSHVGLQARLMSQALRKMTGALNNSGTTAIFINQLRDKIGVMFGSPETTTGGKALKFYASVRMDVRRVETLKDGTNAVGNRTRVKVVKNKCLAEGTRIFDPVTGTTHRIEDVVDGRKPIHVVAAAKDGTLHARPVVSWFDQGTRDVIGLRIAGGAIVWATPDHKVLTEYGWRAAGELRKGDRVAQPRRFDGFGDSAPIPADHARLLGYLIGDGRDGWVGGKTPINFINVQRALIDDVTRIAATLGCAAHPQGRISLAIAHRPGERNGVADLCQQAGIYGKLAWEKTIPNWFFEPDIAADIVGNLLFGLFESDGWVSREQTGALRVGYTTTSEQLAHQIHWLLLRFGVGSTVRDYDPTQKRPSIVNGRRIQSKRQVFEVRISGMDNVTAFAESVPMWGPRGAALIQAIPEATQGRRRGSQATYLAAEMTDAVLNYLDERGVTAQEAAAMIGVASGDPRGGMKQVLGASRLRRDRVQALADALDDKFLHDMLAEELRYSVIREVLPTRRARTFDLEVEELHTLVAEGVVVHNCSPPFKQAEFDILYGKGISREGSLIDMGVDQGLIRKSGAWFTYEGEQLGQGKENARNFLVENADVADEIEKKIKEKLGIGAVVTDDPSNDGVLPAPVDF

H9c2 = assay: cells; type: functional, cell-based; conditions: Rattus norvegicus, H9c2, Myocardium;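 note: confirmatory concentration-response retest of ultra-high-throughput screening hits for modulation of myocardial damage; cell death induced by hydrogen peroxide oxidative stress; compound pretreatment for 60 min then peroxide exposure for 2 h; potency is for protecting the cells against peroxide damage rather than for killing them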
SUMO-activating enzyme = SUMO-activating enzyme (Homo sapiens, UniProt Q9UBT2); assay: blockers of UBC9-mediated SUMO conjugation – biochemical, AlphaScreen, SUMOylation inhibitor project, confirmation (AID 2018); type: functional
SUMO-activating enzyme, sequence (Q9UBE0 whole entry): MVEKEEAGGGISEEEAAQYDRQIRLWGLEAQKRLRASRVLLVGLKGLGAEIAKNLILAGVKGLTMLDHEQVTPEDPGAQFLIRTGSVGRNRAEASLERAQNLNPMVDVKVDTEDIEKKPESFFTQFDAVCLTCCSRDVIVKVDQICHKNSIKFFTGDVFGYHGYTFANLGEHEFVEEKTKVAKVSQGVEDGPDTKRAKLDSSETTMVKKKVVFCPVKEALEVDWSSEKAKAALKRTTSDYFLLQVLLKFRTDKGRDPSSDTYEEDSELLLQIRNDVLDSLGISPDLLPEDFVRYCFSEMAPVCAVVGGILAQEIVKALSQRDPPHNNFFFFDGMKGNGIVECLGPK
SUMO-activating enzyme, sequence (Q9UBT2 whole entry): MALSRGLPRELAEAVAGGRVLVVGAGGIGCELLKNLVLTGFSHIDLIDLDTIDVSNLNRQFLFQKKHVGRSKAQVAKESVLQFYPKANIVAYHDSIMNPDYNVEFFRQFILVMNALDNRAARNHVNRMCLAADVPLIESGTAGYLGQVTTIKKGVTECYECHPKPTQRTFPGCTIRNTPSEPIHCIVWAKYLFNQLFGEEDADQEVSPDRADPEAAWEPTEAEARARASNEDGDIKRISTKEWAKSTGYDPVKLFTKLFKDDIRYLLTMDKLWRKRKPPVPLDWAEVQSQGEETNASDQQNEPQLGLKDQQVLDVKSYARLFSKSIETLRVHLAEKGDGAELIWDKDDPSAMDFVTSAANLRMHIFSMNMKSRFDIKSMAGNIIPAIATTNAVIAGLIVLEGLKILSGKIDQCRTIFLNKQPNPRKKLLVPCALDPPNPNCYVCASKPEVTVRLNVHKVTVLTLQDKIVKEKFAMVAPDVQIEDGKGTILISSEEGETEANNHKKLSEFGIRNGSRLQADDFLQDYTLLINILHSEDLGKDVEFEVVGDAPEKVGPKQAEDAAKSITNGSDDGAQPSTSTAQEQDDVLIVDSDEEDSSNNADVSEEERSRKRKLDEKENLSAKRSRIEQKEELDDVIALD

CC1CCCN(CCCNC(=O)c2ccc3c(c2)N(Cc2ccccc2F)C(=O)c2ccccc2S3(=O)=O)C1 (stereo not given)
EC50 [1]: 0.944 µM (active)

Cn1nc(-c2ccc(F)cc2)cc1C(=O)O
IC50 [2]: > 100 µM (not active) | IC50 [3]: > 100 µM (inactive)

COc1cccc(Cc2nnc(N3C(=O)[C@H]4CCCC[C@H]4C3=O)[nH]2)c1
IC50 [2]: > 100 µM (not active) | IC50 [3]: 1.63 µM (active)

CCCOC(=O)c1c(-c2ccc(C)cc2C)csc1NC(=O)C1C2CCC(O2)C1C(=O)O (stereo not given)
IC50 (Genome polyprotein): 55 µM (active) | IC50 [4]: > 79.4 µM (inactive) | IC50 [5]: > 79.4 µM (inactive) | IC50 [6]: > 79.4 µM (inactive)

O=C1c2ccccc2C(=O)N1c1nnc(-c2ccc(Cl)cc2)[nH]1
IC50 [2]: > 100 µM (not active) | IC50 [3]: 2.49 µM (active)

C/C=C(\C)CN1CCC(n2nccc2NC(=O)CCc2ccccc2)CC1
EC50 [7]: 0.299 µM (active) | EC50 [1]: 0.267 µM (active)

CCSC1(SCC)N=C(N)C2(C#N)C(c3ccc(F)cc3)C12C#N (stereo not given)
AC50 [8]: 6.54 µM (active) | AC50 [9]: 14 µM (active) | EC50 [10]: 1.86 µM (active) | EC50 (Protein RecA): 12.5 µM (active)

CN(C)C1(CNC(=O)c2ccc(Cl)c(S(=O)(=O)NCc3ccco3)c2)CCCCC1
EC50 [1]: 0.119 µM (active)

Nc1c(C(=O)N/N=C/c2cccnc2)oc2nc(-c3ccco3)cc(-c3ccco3)c12
IC50 (H9c2): > 79 µM (inactive) | IC50 (SUMO-activating enzyme): 8.88 µM (active)
